Test results taken from publication PMC8837635, “Structural and functional analyses explain Pea KAI2 receptor diversity and reveal stereoselective catalysis during signal perception” (Communications Biology, 2022).

Legend:
AtD14 = target: T1, AtD14 (Arabidopsis thaliana, UniProt Q9SQR3); assay: hydrolysis by purified protein, UPLC-UV; format: biochemical
T1 construct: gene D14
T1 sequence (Q9SQR3 1-267): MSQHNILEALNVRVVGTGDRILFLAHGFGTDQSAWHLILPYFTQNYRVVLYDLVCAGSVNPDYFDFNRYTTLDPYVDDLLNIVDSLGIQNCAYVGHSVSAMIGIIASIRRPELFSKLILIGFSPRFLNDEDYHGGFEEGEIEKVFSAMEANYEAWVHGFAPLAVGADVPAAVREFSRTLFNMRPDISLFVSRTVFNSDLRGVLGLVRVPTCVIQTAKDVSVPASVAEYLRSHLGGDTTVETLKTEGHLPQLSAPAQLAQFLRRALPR

PsKAI2B [1] = target: T2, PsKAI2B (Lathyrus oleraceus, UniProt A0A8X6EGX8); assay: intrinsic tryptophan fluorescence Kd; DSF shift; hydrolysis by UPLC; MS covalent adduct; format: binding
T2 sequence (A0A8X6EGX8 1-270): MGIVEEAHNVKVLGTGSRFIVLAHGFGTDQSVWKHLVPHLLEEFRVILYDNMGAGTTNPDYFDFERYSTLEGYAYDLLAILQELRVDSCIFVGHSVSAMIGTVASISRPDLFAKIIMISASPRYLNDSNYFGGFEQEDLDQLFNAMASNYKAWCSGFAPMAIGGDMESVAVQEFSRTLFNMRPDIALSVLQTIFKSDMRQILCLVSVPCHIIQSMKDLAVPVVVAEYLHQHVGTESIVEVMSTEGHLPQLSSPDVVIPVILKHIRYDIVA

PsKAI2A = target: T3, PsKAI2A (Lathyrus oleraceus, UniProt A0A9D4YJ13); assay: intrinsic tryptophan fluorescence Kd; hydrolysis by UPLC; MS covalent adduct; format: binding
T3 construct: gene KIW84_024963; PsKAI2A.2 (272 aa)
T3 sequence (A0A9D4YJ13 1-264 limits assumed): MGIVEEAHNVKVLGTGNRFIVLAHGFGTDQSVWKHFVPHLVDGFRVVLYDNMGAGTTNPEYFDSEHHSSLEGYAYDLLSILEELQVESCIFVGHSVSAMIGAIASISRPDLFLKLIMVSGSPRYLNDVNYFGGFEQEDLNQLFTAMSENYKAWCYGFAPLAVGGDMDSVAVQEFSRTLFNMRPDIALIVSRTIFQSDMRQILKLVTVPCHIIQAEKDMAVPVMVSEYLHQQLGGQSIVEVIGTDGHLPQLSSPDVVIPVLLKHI

RMS3 = target: T4, RMS3 (Lathyrus oleraceus, UniProt A0A109QYD3); assay: hydrolysis by purified protein, UPLC-UV; format: biochemical
T4 sequence (A0A109QYD3 1-267): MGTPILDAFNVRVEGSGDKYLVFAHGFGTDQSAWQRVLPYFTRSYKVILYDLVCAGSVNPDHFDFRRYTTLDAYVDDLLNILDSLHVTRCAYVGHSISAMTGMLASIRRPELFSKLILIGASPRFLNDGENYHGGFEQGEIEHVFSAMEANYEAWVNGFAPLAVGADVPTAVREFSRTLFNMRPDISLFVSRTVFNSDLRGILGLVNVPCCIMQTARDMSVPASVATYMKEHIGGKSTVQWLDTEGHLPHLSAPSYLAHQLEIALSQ

PsKAI2B [2] = target: T2, PsKAI2B; assay: co-crystal structure with (–)-GR24 at […] Å; hydrolysis product trapped in catalytic site; MS +[…] Da adduct on H246; format: binding

In the case of CC1=C[C@@H](O/C=C2/C(=O)O[C@H]3c4ccccc4C[C@@H]23)OC1=O [(–)-GR24], the “hydrolysis by purified protein, UPLC-UV” value (AtD14) is reported as “AtD14 and PsRMS3 (Pisum D14) similarly bind and hydrolyze both the isolated (–)- and (+)-GR24 stereoisomers”, the Kd (PsKAI2B [1]) is reported as 89.4 ± 12.1 µM and the Kd (PsKAI2A) is reported as 115 ± 9.87 µM. For the same compound, the “hydrolysis by purified protein, UPLC-UV” value (RMS3) was “AtD14 and PsRMS3 (Pisum D14) similarly bind and hydrolyze both the isolated (–)- and (+)-GR24 stereoisomers”.

In the case of CC1=CC(O)OC1=O [D-OH, 5-hydroxy-3-methylbutenolide], the “co-crystal structure with (-)-GR24 at 2.0 Å; hydrolysis product trapped in catal” value (PsKAI2B [2]) is reported as 5-hydroxy-3-methylbutenolide (D-OH ring), resulting from the (–)-GR24 cleavage, is trapped in the catalytic site.
